# Assay results published in patent US20120010173A1 (SEPS PHARMA N.V., priority 2009, published 2012).
# Experiments:
# Type in all cases: physicochemical
# [1] = Solubility of fosfluconazole derivatives in pharmaceutical solvents (Table 2)
# [2] = Chemical stability in pharmaceutical solvents (weight % remaining in solution, LCMS)
# [3] = Solubility in pharmaceutical solvents (Table 3); settings: for calculated fluconazole concentration: value within brackets
# Text: The values within brackets in Table 3 correspond to the calculated fluconazole concentrations taking into account the molecular weights of the relevant fosfluconazole prodrug and fluconazole itself.
substance,measurement,setting,value
"2-((2-(2,4-difluorophenyl)-1,3-di(1H-1,2,4-triazol-1-yl)propan-2-yloxy)(ethoxy)phosphoryloxy)ethyl (3S,8R,9S,10R,13S,14S,17R)-10,13,17-trimethyl-17-((R)-6-methylheptan-2-yl)-2,3,4,7,8,9,10,11,12,13,14,15,16,17-tetradecahydro-1H-cyclopenta[a]phenanthren-3-yl succinate [Example 6]",solubility,"[1]; H2O (pH = 2), 25° C.",<1 µg/mL
same,solubility,"[1]; H2O (pH = 7), 25° C.",<1 µg/mL
same,solubility,"[1]; H2O (pH = 10), 25° C.",<1 µg/mL
same,solubility,"[1]; H2O/Cremophor RH 40 (80/20), 25° C.",<1 µg/mL
same,solubility,"[1]; H2O/Kleptose HPB (60/40), 25° C.",600 µg/mL
same,solubility,"[1]; H2O/Vitamin E TPGS (90/10), 25° C.",6200 µg/mL
same,solubility,"[1]; H2O/polysorbate 80 (80/20), 25° C.",>10000 µg/mL
same,solubility,"[1]; Miglyol 812, 25° C.",>10000 µg/mL
same,solubility,"[1]; PEG 400, 25° C.",>10000 µg/mL
same,weight percentage that remained in solution,"[2]; H2O (pH = 2), 2 hours",98.4 % w/w
same,weight percentage that remained in solution,"[2]; H2O (pH = 2), 4 hours",44.0 % w/w
same,weight percentage that remained in solution,"[2]; H2O (pH = 2), 1 day",55.3 % w/w
same,weight percentage that remained in solution,"[2]; H2O (pH = 2), 2 days",46.4 % w/w
same,weight percentage that remained in solution,"[2]; H2O (pH = 2), 7 days",0.0 % w/w
same,weight percentage that remained in solution,"[2]; H2O (pH = 2), 14 days",0.0 % w/w
same,weight percentage that remained in solution,"[2]; H2O (pH = 7), 2 hours",100.0 % w/w
same,weight percentage that remained in solution,"[2]; H2O (pH = 7), 4 hours",100.0 % w/w
same,weight percentage that remained in solution,"[2]; H2O (pH = 7), 1 day",100.0 % w/w
same,weight percentage that remained in solution,"[2]; H2O (pH = 7), 2 days",100.0 % w/w
same,weight percentage that remained in solution,"[2]; H2O (pH = 7), 7 days",100.0 % w/w
same,weight percentage that remained in solution,"[2]; H2O (pH = 7), 14 days",100.0 % w/w
same,weight percentage that remained in solution,"[2]; H2O (pH = 10), 2 hours",100.0 % w/w
same,weight percentage that remained in solution,"[2]; H2O (pH = 10), 4 hours",100.0 % w/w
same,weight percentage that remained in solution,"[2]; H2O (pH = 10), 1 day",100.0 % w/w
same,weight percentage that remained in solution,"[2]; H2O (pH = 10), 2 days",100.0 % w/w
same,weight percentage that remained in solution,"[2]; H2O (pH = 10), 7 days",100.0 % w/w
same,weight percentage that remained in solution,"[2]; H2O (pH = 10), 14 days",100.0 % w/w
same,weight percentage that remained in solution,"[2]; H2O/Kleptose HPB (60/40), 2 hours",86.7 % w/w
same,weight percentage that remained in solution,"[2]; H2O/Kleptose HPB (60/40), 4 hours",86.7 % w/w
same,weight percentage that remained in solution,"[2]; H2O/Kleptose HPB (60/40), 1 day",86.7 % w/w
same,weight percentage that remained in solution,"[2]; H2O/Kleptose HPB (60/40), 2 days",86.7 % w/w
same,weight percentage that remained in solution,"[2]; H2O/Kleptose HPB (60/40), 7 days",86.7 % w/w
same,weight percentage that remained in solution,"[2]; H2O/Kleptose HPB (60/40), 14 days",86.7 % w/w
same,weight percentage that remained in solution,"[2]; PEG 400, 2 hours",100.0 % w/w
same,weight percentage that remained in solution,"[2]; PEG 400, 4 hours",100.0 % w/w
same,weight percentage that remained in solution,"[2]; PEG 400, 1 day",100.0 % w/w
same,weight percentage that remained in solution,"[2]; PEG 400, 2 days",100.0 % w/w
same,weight percentage that remained in solution,"[2]; PEG 400, 7 days",100.0 % w/w
same,weight percentage that remained in solution,"[2]; PEG 400, 14 days",100.0 % w/w
same,solubility,[3]; Benzylalcohol,≥ 226.7
same,calculated fluconazole concentration,[3]; Benzylalcohol,(74.8)
same,solubility,[3]; Benzylbenzoate,≥ 226.7
same,calculated fluconazole concentration,[3]; Benzylbenzoate,(74.8)
same,solubility,[3]; Ethylbenzoate,≥ 226.7
same,calculated fluconazole concentration,[3]; Ethylbenzoate,(74.8)
same,solubility,[3]; Miglyol 812,200.0
same,calculated fluconazole concentration,[3]; Miglyol 812,(66.0)
same,solubility,[3]; N-methylpyrrolidone,≥ 226.7
same,calculated fluconazole concentration,[3]; N-methylpyrrolidone,(74.8)
same,solubility,[3]; Sesame oil (LCT),23.3
same,calculated fluconazole concentration,[3]; Sesame oil (LCT),(7.7)
